Where two headings read alike, the source gives them in different places.
Tests used:
[1] = biological target: muscarinic receptors; assay: Radioligand binding: displacement of muscarinic agonist 3H-Oxotremorine-M (3H-OXO-M), rat cerebral cortex; set-up: species or system Hooded Lister rats; conditions: displacement of 2 nM 3H-OXO-M, 2 mM magnesium chloride, 37° C., 30 min
[2] = biological target: muscarinic receptors; type: binding, Hooded Lister rats; conditions: displacement of 0.27 nM 3H-QNB, rat cerebral cortex, 37° C., 30 min

| Structure (SMILES) | IC50 [1] [nM] | IC50 [2] [µM] |
| --- | --- | --- |
| Cn1ncc(C23CCN(CC2)C3)n1 [Example E10, 4-(2-Methyl-1,2,3-triazol-4-yl)-1-azabicyclo[2.2.1]-heptane] | 32 | 20 |
| CCn1ncc(C23CCN(CC2)C3)n1 [Example E16] | 440 | 15.8 |
| Cn1nnnc1[C@@H]1CN2CC[C@@H]1C2 (relative stereo) [Example E5, (±) exo-3-(1-Methyltetrazol-5-yl)-1-azabicyclo-[2.2.1]heptane] | 349 | 95 |
| Cn1ncc([C@@H]2CN3CC[C@@H]2C3)n1 (relative stereo) [Example E14, (±) exo-3-(2-Methyl-1,2,3-triazol-4-y1)-1-azabicyclo 2.2.1]heptane] | 5.6 | 5.7 |
| Cn1nnc(C23CCCN(CC2)C3)n1 (racemic) [Example E3, (±) 5-(2-Methyltetrazol-5-yl)-1-azabicyclo[3.2.1]octane] | 100 | 8.2 |
| Cn1ncc(C23CCCN(CC2)C3)n1 (racemic) [Example E1, (±) 5-(2-Methyl-1,2,3-triazol-4-yl)-1-azabicyclo-[3.2.1]octane] | 14.2 | 3 |
| CCn1nnc(C2CN3CCC2CC3)n1 (racemic) [Example E9, (±) 3-(2-Ethyltetrazol-5-yl)-1-azabicyclo[2.2.2]octane] | 1000 | 8.3 |
| Cn1nnc([C@@H]2CN3CC[C@@H]2C3)n1 (relative stereo) [Example E4, (±) exo-3-(2-Methyltetrazol-5-yl)-1-azabicyclo-[2.2.1]heptane] | 11.5 | 3.7 |
| Cn1ncc([C@H]2CN3CC[C@@H]2C3)n1 (relative stereo) [Example E15, (±) endo-3-(2-Methyl-1,2,3-triazol-4-yl)-1-azabicyclo [2.2.1]heptane] | 10.5 | 18.5 |
| Cn1ncc(C2CN3CCC2CC3)n1 (racemic) [Example E11] | 56 | 6.55 |
| Cn1nnc([C@H]2CN3CC[C@@H]2C3)n1 (relative stereo) [Example E6, (±) endo-3-(2-Methyltetrazol-5-yl)-1-azabicyclo-[2.2.1]heptane] | 324 | 40 |
| CCn1ncc([C@@H]2CN3CC[C@@H]2C3)n1 (relative stereo) [Example E19, (±) exo-3-(2-Ethyl-1.2.3-triazol-4-yl)-1-azabicyclo [2.2.1]heptane] | 540 | 2.2 |
| Cn1nnc(C23CCN(CC2)C3)n1 [Example E8, 4-(2-Methyltetrazol-5-yl)-1-azabicyclo2.2.11 heptane] | 250 | 56 |
| CCn1nnc([C@@H]2CN3CC[C@@H]2C3)n1 (relative stereo) [Example E18, (±) exo-3-(2-Ethyltetrazol-5-yl)-1-azabicyclo[2.2.1]heptane] | 400 | 5.5 |
| Cn1nnc(C2CN3CCC2CC3)n1 (racemic) [Example E2, (±) 3-(2-Methyltetrazol-5-yl)-1-azabicyclo[2.2.2]octane] | 230 | 5.7 |
| Cn1nncc1C1CN2CCC1CC2 (racemic) [Example E13] | 750 | 38 |

Reference: patent US5217975A (priority 1989, dated 1993)
